How the values were obtained:
reader domain of YTHDF1 = reader domain of YTHDF1 (Homo sapiens, UniProt Q9BYJ9); conditions: from residual signal at 1 mM, Table S1
reader domain of YTHDF3 = reader domain of YTHDF3 (Homo sapiens, UniProt Q7Z739); conditions: from residual signal at 1 mM, Table S1
[1] = prevented HTRF measurement
[2] = molecular target: m^6A reader domain of YTHDF2 (Homo sapiens, UniProt Q9Y5A9); conditions: for Potency/affinity for YTHDF2 (in words): HTRF, comparison within Table 1
m^6A reader domain of YTHDF2, sequence (Q9Y5A9 383-579): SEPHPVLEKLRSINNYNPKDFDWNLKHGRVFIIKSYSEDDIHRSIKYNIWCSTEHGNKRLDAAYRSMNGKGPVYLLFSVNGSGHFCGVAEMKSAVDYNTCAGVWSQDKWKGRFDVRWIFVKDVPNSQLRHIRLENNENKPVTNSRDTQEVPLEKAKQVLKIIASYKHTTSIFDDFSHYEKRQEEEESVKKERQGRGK

reader domain of YTHDF1, sequence (Q9BYJ9 361-559): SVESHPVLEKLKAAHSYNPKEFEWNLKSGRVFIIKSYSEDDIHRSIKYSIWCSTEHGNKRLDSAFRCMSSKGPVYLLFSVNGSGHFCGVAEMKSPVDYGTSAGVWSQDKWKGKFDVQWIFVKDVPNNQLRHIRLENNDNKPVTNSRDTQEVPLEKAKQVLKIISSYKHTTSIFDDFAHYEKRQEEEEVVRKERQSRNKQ
reader domain of YTHDF3, sequence (Q7Z739 391-585): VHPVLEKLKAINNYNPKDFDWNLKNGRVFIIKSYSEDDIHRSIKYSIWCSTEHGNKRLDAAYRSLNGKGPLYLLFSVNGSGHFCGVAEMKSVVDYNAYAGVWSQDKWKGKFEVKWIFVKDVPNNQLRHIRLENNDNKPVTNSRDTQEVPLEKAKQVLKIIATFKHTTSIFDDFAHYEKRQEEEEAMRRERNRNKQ

SMILES | Potency/affinity for YTHDF2 (in words) [2] | further results
CNc1ncnc2c(C)[nH]nc12 [Compound 5] | – | Affinity for YTHDF1 (in words) (reader domain of YTHDF1): weak affinity; Affinity for YTHDF3 (in words) (reader domain of YTHDF3): weak affinity
CNc1nc(NC)c2ncn(C)c2n1 [Compound 3] | – | Solubility (in words) [1]: poor solubility
CNc1ncnc2c1ncn2[C@@H]1O[C@H](CO)[C@@H](O)[C@H]1O [m^6A, N6-methyladenosine, reference compound] | not able to reduce the emitted signal even at high concentrations | –
O=c1cc(C2CC2)[nH]c(=O)[nH]1 [Compound 11, 6-cyclopropyluracil] | substantially higher | Ligand efficiency ([2]; calculated from YTHDF2 IC50): 0.47 kcal mol^–1 per non-hydrogen atom
Cc1[nH]nc2c(NC3CC3)ncnc12 [Compound 6] | lower than the one observed for its parent compound 5 | –
CNc1ncnc2c(-c3ccccc3)[nH]nc12 [Compound 7] | – | Selectivity for YTHDF2 against YTHDF1 and YTHDF3 (in words) ([2]; from residual signal at 1 mM, Table S1): modest selectivity
COc1cc(=O)[nH]c(=O)[nH]1 [Compound 10, 6-methoxyuracil] | does not provide higher affinity | –
CNc1ncnc2c(Br)[nH]nc12 [Compound 8] | nor any improvement in potency with respect to the methyl of 5 | –
